Reference: patent publication US12459951B2, “Compounds that interact with RAS superfamily proteins for treatment of cancers, inflammatory diseases, rasopathies, and fibrotic disease” (SHY Therapeutics, LLC, priority 2022, dated 2025)

Tests used:
Akt phosphorylation = assay: Akt Phosphorylation Assay (western blot), Panc-1; type: cell-based, human; details: at 10 μM, * = activation
How it was run: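 Panc-1 (KRas G12D) cells were treated with compound at 10 μM final (0.3% DMSO) for 6 h at 37 °C, or with serial dilutions for IC50. Cells were either serum-starved overnight in 0.5% FBS and then stimulated with 1.5 ng/ml EGF for 15 min, or kept in 10% FBS without stimulation. Akt Ser473 phosphorylation in lysates was read by western blot.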

KRas G12D mutant = assay: Ras GTP Binding Domain Inhibition Assay (Ras Superfamily Assay); details: 20 μM compound; for KRas G12D mutant + SOS: % inh.: with SOS; for KRas G12D mutant: % inh.: without SOS
How it was run: (§1)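 His-tagged GTPases immobilised on nickel-coated plates, pre-incubated with compound (20 μM single point, or serial dilution for IC50) 3 h at room temperature, with or without 10-30 μg/mL Sos (residues 556-1049) in the final hour. Bound Cy3- or Cy5-GTP (100 nM, 45 min) measured by fluorescence after washing.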

Rac-1 = target: T1, Rac-1 (Homo sapiens, UniProt P63000); assay: as above; details: read-out: Rac-1: % inh.
T1 construct: made in house
How it was run: as §1

KRas wild type = assay: as above; details: 20 μM compound; for KRas wild type + SOS: % inh.: with SOS; for KRas wild type: % inh.: without SOS
How it was run: as §1

Compound | KRas G12D mutant + SOS: % inh. (KRas G12D mutant) | KRas G12D mutant: % inh. (KRas G12D mutant) | inhibition at 20 µM (Rac-1) | KRas wild type + SOS: % inh. (KRas wild type) | KRas wild type: % inh. (KRas wild type) | % inh of Akt phosphorylation in Panc-1 (Akt phosphorylation)
COc1cnc(Nc2nc(-c3nccn3C)nn3cc(-c4ccn(C)n4)c(C)c23)nc1.Cl [Compound 117, N-(5-Methoxypyrimidin-2-yl)-5-methyl-2-(1-methyl-1H-imidazol-2-yl)-6-(1-methyl-1H-pyrazol-3-yl)pyrrolo[2,1-f][1,2,4]triazin-4-amine hydrochloride salt] | A (A = 1-25% inhibition) | A (A = 1-25% inhibition) | 1 to 25% | A (A = 1-25% inhibition) | A (A = 1-25% inhibition) | B (26-49% inhibition)
Cc1c(-c2ccn(C(C)C)n2)cn2nc(-c3nccn3C)nc(Nc3nccc(OCCO)n3)c12 [Compound 121, 2-((2-((6-(1-Isopropyl-1H-pyrazol-3-yl)-5-methyl-2-(1-methyl-1H-imidazol-2-yl)pyrrolo[2,1-f][1,2,4]triazin-4-yl)amino)pyrimidin-4-yl)oxy)ethan-1-ol] | D (D = 76-100% inhibition) | D (D = 76-100% inhibition) | 76 to 100% | C (C = 50-75% inhibition) | D (D = 76-100% inhibition) | B* (26-49% activation)
COCCOc1cc(Nc2nc(-c3nccn3C)nn3cc(-c4ccn(C(C)C)n4)c(C)c23)ncn1 [Compound 122, 6-(1-Isopropyl-1H-pyrazol-3-yl)-N-(6-(2-methoxyethoxy)pyrimidin-4-yl)-5-methyl-2-(1-methyl-1H-imidazol-2-yl)pyrrolo[2,1-f][1,2,4]triazin-4-amine] | D (D = 76-100% inhibition) | D (D = 76-100% inhibition) | 76 to 100% | D (D = 76-100% inhibition) | D (D = 76-100% inhibition) | C* (46-84% activation)
Cc1c(-c2ccn(C(C)C)n2)cn2nc(-c3nccn3C)nc(Nc3cc(OCCN(C)C)ncn3)c12 [Compound 123, N-(6-(2-(Dimethylamino)ethoxy)pyrimidin-4-yl)-6-(1-isopropyl-1H-pyrazol-3-yl)-5-methyl-2-(1-methyl-1H-imidazol-2-yl)pyrrolo[2,1-f][1,2,4]triazin-4-amine] | D (D = 76-100% inhibition) | D (D = 76-100% inhibition) | 76 to 100% | D (D = 76-100% inhibition) | D (D = 76-100% inhibition) | B* (26-49% activation)
Cc1c(-c2ccn(C)n2)cn2nc(-c3nccn3C)nc(Nc3cc4n(n3)CCO4)c12 [Compound 124, N-(5-Methyl-2-(1-methyl-1H-imidazol-2-yl)-6-(1-methyl-1H-pyrazol-3-yl)pyrrolo[2,1-f][1,2,4]triazin-4-yl)-2,3-dihydropyrazolo[5,1-b]oxazol-6-amine] | C (C = 50-75% inhibition) | C (C = 50-75% inhibition) | 76 to 100% | C (C = 50-75% inhibition) | D (D = 76-100% inhibition) | C* (46-84% activation)
Cc1c(-c2ccn(C(C)C)n2)cn2nc(-c3nccn3C)nc(Nc3ncc[nH]3)c12 [Compound 125, N-(1H-Imidazol-2-yl)-6-(1-isopropyl-1H-pyrazol-3-yl)-5-methyl-2-(1-methyl-1H-imidazol-2-yl)pyrrolo[2,1-f][1,2,4]triazin-4-amine] | C (C = 50-75% inhibition) | C (C = 50-75% inhibition) | 50 to 75% | B (B = 26-49% inhibition) | C (C = 50-75% inhibition) | D* (85-100% activation)
COCCO[C@H]1C[C@H](Nc2nc(-c3nccn3C)nn3cc(-c4ccn(C)n4)c(C)c23)C1 [Compound 130, N-((1r,3r)-3-(2-Methoxyethoxy)cyclobutyl)-5-methyl-2-(1-methyl-1H-imidazol-2-yl)-6-(1-methyl-1H-pyrazol-3-yl)pyrrolo[2,1-f][1,2,4]triazin-4-amine] | A (A = 1-25% inhibition) | B (B = 26-49% inhibition) | 0% | 0 (0 = 0% inhibition) | A (A = 1-25% inhibition) | D* (85-100% activation)

Now from value to molecule, other results behind:

KRas G12D mutant + SOS: % inh. (KRas G12D mutant) | KRas G12D mutant: % inh. (KRas G12D mutant) | inhibition at 20 µM (Rac-1) | KRas wild type + SOS: % inh. (KRas wild type) | KRas wild type: % inh. (KRas wild type) | Compound | % inh of Akt phosphorylation in Panc-1 (Akt phosphorylation)
C (C = 50-75% inhibition) | C (C = 50-75% inhibition) | 50 to 75% | D (D = 76-100% inhibition) | C (C = 50-75% inhibition) | Cc1c(-c2ccn(C)n2)cn2nc(-c3nccn3C)nc(Nc3ccncn3)c12.Cl [Compound 116, 5-Methyl-2-(1-methyl-1H-imidazol-2-yl)-6-(1-methyl-1H-pyrazol-3-yl)-N-(pyrimidin-4-yl)pyrrolo[2,1-f][1,2,4]triazin-4-amine hydrochloride salt] | D* (85-100% activation)
D (D = 76-100% inhibition) | D (D = 76-100% inhibition) | 76 to 100% | D (D = 76-100% inhibition) | D (D = 76-100% inhibition) | Cc1c(-c2ccn(C)n2)cn2nc(-c3nccn3C)nc(Nc3ccccn3)c12 [Compound 118, 5-Methyl-2-(1-methyl-1H-imidazol-2-yl)-6-(1-methyl-1H-pyrazol-3-yl)-N-(pyridin-2-yl)pyrrolo[2,1-f][1,2,4]triazin-4-amine] | D* (85-100% activation)
B (B = 26-49% inhibition) | C (C = 50-75% inhibition) | 26 to 49% | A (A = 1-25% inhibition) | C (C = 50-75% inhibition) | Cc1c(-c2ccn(C)n2)cn2nc(-c3nccn3C)nc(Nc3nnco3)c12.Cl [Compound 119, N-(5-Methyl-2-(1-methyl-1H-imidazol-2-yl)-6-(1-methyl-1H-pyrazol-3-yl)pyrrolo[2,1-f][1,2,4]triazin-4-yl)-1,3,4-oxadiazol-2-amine hydrochloride salt] | D* (85-100% activation)
A (A = 1-25% inhibition) | B (B = 26-49% inhibition) | 26 to 49% | C (C = 50-75% inhibition) | A (A = 1-25% inhibition) | Cc1c(-c2ccn(C)n2)cn2nc(-c3nccn3C)nc(Nc3cnccn3)c12 [Compound 120, 5-Methyl-2-(1-methyl-1H-imidazol-2-yl)-6-(1-methyl-1H-pyrazol-3-yl)-N-(pyrazin-2-yl)pyrrolo[2,1-f][1,2,4]triazin-4-amine] | B* (26-49% activation)
B (B = 26-49% inhibition) | B (B = 26-49% inhibition) | 26 to 49% | A (A = 1-25% inhibition) | A (A = 1-25% inhibition) | Cc1c(-c2ccn(C)n2)cn2nc(-c3nccn3C)nc(Nc3cc(OC4CC4)ccn3)c12 [Compound 126, N-(4-Cyclopropoxypyridin-2-yl)-5-methyl-2-(1-methyl-1H-imidazol-2-yl)-6-(1-methyl-1H-pyrazol-3-yl)pyrrolo[2,1-f][1,2,4]triazin-4-amine] | D* (85-100% activation)
D (D = 76-100% inhibition) | D (D = 76-100% inhibition) | 76 to 100% | D (D = 76-100% inhibition) | D (D = 76-100% inhibition) | Cc1c(-c2ccn(C)n2)cn2nc(-c3nccn3C)nc(Nc3cc(OC(F)(F)F)ccn3)c12 [Compound 127, 5-Methyl-2-(1-methyl-1H-imidazol-2-yl)-6-(1-methyl-1H-pyrazol-3-yl)-N-(4-(trifluoromethoxy)pyridin-2-yl)pyrrolo[2,1-f][1,2,4]triazin-4-amine] | D* (85-100% activation)
D (D = 76-100% inhibition) | D (D = 76-100% inhibition) | 76 to 100% | D (D = 76-100% inhibition) | D (D = 76-100% inhibition) | Cc1c(-c2ccn(C)n2)cn2nc(-c3nccn3C)nc(Nc3cc(OC(F)F)ccn3)c12 [Compound 128, N-(4-(Difluoromethoxy)pyridin-2-yl)-5-methyl-2-(1-methyl-1H-imidazol-2-yl)-6-(1-methyl-1H-pyrazol-3-yl)pyrrolo[2,1-f][1,2,4]triazin-4-amine] | D* (85-100% activation)
B (B = 26-49% inhibition) | B (B = 26-49% inhibition) | 26 to 49% | B (B = 26-49% inhibition) | B (B = 26-49% inhibition) | Cc1c(-c2ccn(C)n2)cn2nc(-c3nccn3C)nc(Nc3cc(OCC(F)(F)F)ccn3)c12 [Compound 129, 5-Methyl-2-(1-methyl-1H-imidazol-2-yl)-6-(1-methyl-1H-pyrazol-3-yl)-N-(4-(2,2,2-trifluoroethoxy)pyridin-2-yl)pyrrolo[2,1-f][1,2,4]triazin-4-amine] | C* (46-84% activation)
